Patent US5250541A, “Kynurenic acid derivatives, their preparation and pharmaceutical compositions containing them” (Fidia S.p.A., priority 1989, dated 1993)
Where two headings read alike, the source gives them in different places. Blank lines part the entries; values can stand above or below the molecule they belong to.

Columns and labels:
[1] = test system: mouse cerebral cortex slices; assay: antagonism of glutamate or NMDA actions on mouse cerebral cortex slices; type: cell-based; settings: brain slices, read-out: concentration antagonising 50% of glutamate or NMDA actions
Source text: (§1) The compounds I were also active in mouse cerebral cortex slices according to Proc. Natl. Acad. Sci. USA 85; 6547-6550--1988, in the prevention of glutamate toxicity in cultured cells and in the prevention of NMDA induced convulsions in mice.

[2] = test system: NMDA receptors present on guinea-pig ileum; assay: antagonism of glutamate or NMDA actions on guinea-pig ileum; type: cell-based; settings: guinea-pig terminal ileum; read-out: concentration antagonising 50% of glutamate or NMDA actions
Source text: 2) they antagonise in […] way the glutamate effect on NMDA receptors present on guinea-pig ileum: on this test their effect is competitively antagonized by glycine.

[3] = biological target: T1, glycine recognition site of the NMDA receptor-ion channel complex (cortical membranes), UniProt Q05586); assay: displacement of labelled glycine from cortical membranes; type: binding; settings: cortical membranes; read-out: concentration displacing 50% of labelled glycine from its binding sites
T1 construct: from tissue
Source text: (§2) 1) they displace labelled glycine from cortical membranes with an EC50 value 5-10 times lower than that of kynurenate;

cultured cells = assay: prevention of glutamate toxicity in cultured cells; type: cell-based
Source text: as §1

[4] = test system: NMDA receptors present on guinea-pig ileum; settings: guinea-pig myenteric plexus; cited from earlier work
[5] = biological target: T2, glycine recognition site of the NMDA receptor-ion channel complex (cortical membranes) (Homo sapiens, UniProt Q05586); assay: displacement of labelled glycine from cortical membranes; type: binding
T2 construct: from tissue
Source text: as §2

IC50 [1]: 5 µM
IC50 [2]: 5 µM
IC50 [3]: 1 µM
SMILES: O=C(O)c1cc(S)c2ccc(Cl)cc2n1 [7-chloro-4-thiokynurenic acid, 7-chloro-4-thio-quinoline-2-carboxylic acid]
concentration antagonising the glutamate neurotoxicity (cultured cells): 0.08 µM

SMILES: O=C(O)c1cc(=O)c2ccccc2[nH]1 [kynurenic acid]
antagonistic activity of the glutamate effect [4]: antagonistic activity of the glutamate effect

SMILES: O=C(O)c1cc(S)c2ccccc2n1 [thiokynurenic acid, 4-thio-quinoline-2-carboxylic (thiokynurenic) acid]
mode of action at the glycine receptors [5]: competitive antagonists of the glycine receptors
mode of action at the glycine receptors ([5]; listed as 4thiokynurenic acid): competitive antagonists of a particular kind of glycine receptors
